{"source": "patent US20240335397A1", "about": "“USE OF POLYAMINES IN THE TREATMENT OF BRAIN TUMOURS” (priority 2021, published 2024)", "key": {"U87 cell line spheroid": {"tested_on": "U87 cell line spheroid", "conditions": "for Invasion from spheroid: 2 wt % HA gel pre-mixed with polyamine; for Binding to HA (rank among polyamines): inferred from spheroid invasion in 2 wt % HA gel", "experimental": "FIG. 3. Neutralisation of polyamine toxicity by matrix polyanions assayed in vitro. U87 cells were suspended at 5K cells per spheroid and then grown in medium in non-adherent plates for 7-10 days until seeded into 2% HA gel pre-mixed with a polyamine for 24 hours. (A) Representative microscopic images (multiplication 5×, field view: 1800 μm×2500 μm) were taken on day 2 after spheroid was seeded into the gel. (B) Area of invasion was determined by measurement of invasion distance from the centre of four independent spheroids in four directions on days 1, 2 and 3.\nStrength of polyamine binding to polyanions (hyaluronic acid, GAGs) in (normal) brain ECM is a decisive factor which targets polyamine toxicity towards cancer cells rather than brain cells. When binding is strong, a polyamine will be neutralised before reaching cellular membrane which is surrounded by extracellular polyanions. When binding is weak, sufficient concentration of polyamine may kill the cell even though the cell is surrounded by polyanions. To test the binding strength of different polyamines, we developed a 3D neutralisation assay: the invasion from a neuroepithelial cancer spheroid (U87 cell line) was monitored in vitro in 2 wt % HA gel pre-mixed with different polyamines. Invasion from spheroid was indicative of cell survival and thus predictive of a strong binding of the polyamine to brain polyanions in vivo. A weak in vitro binding of a polyamine to HA manifested itself by the absence of invasion, i.e. cell poisoning, and thus was predictive of weak binding of the polyamine to brain polyanions in vivo.\nIn detail, polyamines were mixed with 2 wt % hyaluronic acid mixed with full MEM medium containing 10% foetal bovine serum to support cell growth to achieve the desired polyamine concentration and the resulting hyaluronic acid/polyamine gel plated in 24-well plates. One 3D tumour spheroid of U87 GBM cells was placed in each well. The invasion into the surrounding hyaluronic acid-rich matrix was imaged over several days and the invasion area measured by determining the maximum invasion distance in four orthogonal directions from the centre of the tumour spheroid and compared to controls with no polyamine in the hyaluronic acid matrix."}, "U87 cells [1]": {"tested_on": "U87 cells", "assay": "Acute toxicity of polyamines to U87 cells in liquid medium (CellToxGreen fluorescence, bright field images)", "assay_type": "cell-based", "conditions": "for EC50: Homo sapiens, U-87 MG, 1 h, U87 cells, liquid medium, 60 minutes incubation, CellToxGreen normalised to lysis buffer control, read-out: EC50 (cell death)", "experimental": "FIG. 1. Comparative acute toxicity of selected linear polyamines towards cancer cell line of neuroepithelial origin. U87 cells were plated in 24-well plates and grown for about 3 days in liquid medium up to 50% confluency. Cell death was assayed via CellToxGreen (Promega) fluorescence after 60 minutes incubation with a polyamine and normalised to control in a lysis buffer.\nWe tested polyamine toxicity to U87 cells, an invasive cancer cell line of neuroepithelial origin, when they were plated and incubated in full MEM medium, containing 10% foetal bovine serum."}, "U87 cells [2]": {"tested_on": "U87 cells", "assay": "2D-scanning cell toxicity assay: polyamine injected into well of U87 cells under 3 wt % HA gel", "assay_type": "cell-based", "conditions": "for Level of protection by HA of distant cells (rank): FIG. 4", "experimental": "FIG. 4. […] Adherent cells were grown in 24-well plates in 3% HA gel until achieved 40-50% confluency. Non-toxic fluorescent dye—CellToxGreen (Promega)—was premixed into the gel. 30 μL of polyamine ( 1/20 of total gel volume) was injected at 6 o'clock position of the well. CellToxGreen penetrated only into the dead cells with compromised membranes, bound to their DNA and emitted green fluorescence, i.e. increase in fluorescence intensity quantified cell death. Cells were monitored for 7 days using well scanning functions of a fluorescent reader FLUOstar (BMG Labtech, Germany). (A) Drawing of a well to show the point of injection of polyamine and the fate of cells near the injection point; and a representative image of a well assembled from 44 scanned patches. The higher the fluorescence intensity of a patch, the higher was the number of dead cells. (B) Ratio of dead cell fluorescence in two opposite areas of the well. Ratio=[fluorescence intensity in 22 patches adjacent to the injection point]/[fluorescence intensity in 22 patches opposing the injection point]. […] Multiplication 5×, field view: 2500 μm×1800 μm.\nWhen brain cancers develop, it is within the polyanion (hyaluronic acid and GAG)-enriched environment of normal brain matrix, which in the tumour vicinity is degraded, diluted by oedema while the tumour itself synthesizes new specialized matrix with very different composition to normal brain (see Example 2). […] First, a cancer cell line of the neuroepithelial origin (U87) was plated, given a day for the cells to adhere to the well bottom and then covered by HA gel as a model of the polyanion-rich, normal brain ECM. Then, a polyamine was injected at the 6 o'clock position of each well (see FIG. 4). In the vicinity of the injection point, cells were expected to die, because the initial polyamine concentration was maximal in this region and the HA gel in this region was diluted by the carrier solvent (PBS). However, cells distant from the injection point were still surrounded by undiluted HA and the HA gel was expected to sequester the polyamine as it diffused through the HA gel, providing the polyamine binds strongly to HA and there is sufficient HA (i.e. the HA is not diluted) to bind sufficient polyamine to reduce the effective polyamine concentration to below the EC50 value. Thus, cells more distant from the injection point were expected to be protected from the polyamine, for as long as the polyamine remained strongly bound to the HA gel. Cell death was imaged over the well by scanning the well bottom for the fluorescence of a mortality dye, which binds DNA of cells with impaired membrane integrity.\nIn detail, U87 glioblastoma cells were grown in 24-well plates at with full MEM medium containing 10% foetal bovine serum until a layer of confluent cells covered the bottom of each well (FIG. 4). This liquid media was then removed leaving a layer of cells adhered to the bottom of each well. […] This hyaluronic acid plus protein gel represents a model of human brain extracellular matrix. CEIIToxGreen is a non-toxic molecule that can only enter dead cells, where it binds to DNA and emits green fluorescence. CEIIToxGreen thus allowed us to follow cell death over time in this assay by monitoring green fluorescence.\n30 μL of different concentrations of polyamine was injected at the 6 o'clock position of each well and mapped the dead cell content in each well as a function of time. Specifically, each well was mapped as 44 congruent, contiguous tiles (FIG. 4A) and cell death in a tile was assayed as the net green fluorescence intensity from the tile."}, "NCr nu/nu mouse brain": {"tested_on": "NCr nu/nu mouse brain", "experimental": "FIG. 5. Weight gain and survival of NCr nu/nu mice after a single polyamine injection into the brain. 6 animals per group were randomised on day 0, and on day 1 injected with 10 μL of 4 and 10 mM of the following three polyamines: putrescine, spermidine and cadaverine. Animal weight, survival and behaviour was monitored for 14 days.\nTo test polyamine safety in vivo and assess their effect on brain function, a single injection of 10 μL into NCr nu/nu mouse brain was selected as a model. A 10 μL volume in a mouse brain correlates well with a 3 cm diameter tumour in human brain, which is a typical size, for example, for initial glioblastoma diagnosis. The injected volume is thus similar to what might be needed to be injected into a human brain tumour. Three polyamines were selected for testing: putrescine, spermidine and cadaverine. Polyamines were tested in two concentrations: the lowest concentration, 4 mM, was expected to be safe based on in vitro assays and the highest concentration, 10 mM, to show some toxicity for cadaverine at least."}, "recurrent GBM": {"tested_on": "recurrent GBM", "conditions": "in combination with Lomustine, patients with recurrent GBM; cited from earlier work"}}, "note": "Like-named read-outs stand apart in the source and are kept apart here."}
{"compound": "NCCCCCCNCCCCCCN", "note": "[BHMTA, bis(hexamethylene)triamine]", "values": [{"measurement": "Concentrations showing cytotoxic effects in hyaluronic acid-rich matrix", "setting": "U87 cell line spheroid", "result": "> 4000", "unit": "µM"}]}
{"compound": "NCCCCNCCCN", "note": "[spermidine]", "values": [{"measurement": "Cytotoxicity in hyaluronic acid-rich matrix compared with media", "setting": "U87 cell line spheroid; 2 wt % HA gel", "result": "almost completely abrogated"}, {"measurement": "Invasion from spheroid", "setting": "U87 cell line spheroid", "result": "invasion from spheroid was not affected"}, {"measurement": "Toxicity in 2 wt % hyaluronic acid", "setting": "U87 cell line spheroid; 4-12 mM", "result": "non-toxic"}, {"measurement": "Binding to HA (rank among polyamines)", "setting": "U87 cell line spheroid", "result": "strongest binder"}, {"measurement": "EC50", "setting": "U87 cells [1]", "result": "13 to 14", "unit": "mM"}, {"measurement": "Time cells on opposite side of well remained viable", "setting": "U87 cells [2]; 4-12 mM, 3 wt % HA gel", "result": "at least 7 days"}, {"measurement": "Time in which cells close to injection site die", "setting": "U87 cells [2]; 4-12 mM, 3 wt % HA gel", "result": "48 to 72", "unit": "h"}, {"measurement": "Toxicity for U87 cells close to injection site", "setting": "U87 cells [2]; 4-12 mM, 3 wt % HA gel", "result": "highly toxic"}, {"measurement": "Protection of cells in HA gel distant from injection", "setting": "U87 cells [2]; both 4 mM and 10 mM", "result": "protected"}]}
{"compound": "NCCCNCCCCNCCCN", "note": "[spermine]", "values": [{"measurement": "Invasion from spheroid", "setting": "U87 cell line spheroid", "result": "invasion was strongly suppressed"}, {"measurement": "Concentrations showing cytotoxic effects in hyaluronic acid-rich matrix", "setting": "U87 cell line spheroid; human", "result": "> 4000", "unit": "µM"}, {"measurement": "Binding to HA (rank among polyamines)", "setting": "U87 cell line spheroid", "result": "weakest binder"}, {"measurement": "Mode of cell death in bright field images", "setting": "U87 cells [1]; U87 cell suspensions, 10 mM and 20 mM, within 60 minutes", "result": "severe membrane disruption resulting in cell fragmentation"}, {"measurement": "Reduction of toxicity in hyaluronic acid-rich environment compared to same cell type in medium", "setting": "U87 cells [2]; 10 mM, 3 wt % HA", "result": 3, "unit": "fold less toxic"}, {"measurement": "Effect on cells a few millimetres away from injection point", "setting": "U87 cells [2]; 4-6 mM, 3 wt % HA gel", "result": "benign"}, {"measurement": "Toxicity to cells close to injection point", "setting": "U87 cells [2]; 4-6 mM, 3 wt % HA gel", "result": "toxic"}]}
{"compound": "NCCCCN", "note": "[putrescine]", "values": [{"measurement": "Cytotoxicity in hyaluronic acid-rich matrix compared with media", "setting": "U87 cell line spheroid", "result": "almost completely abrogated"}, {"measurement": "Acute toxicity in vivo", "setting": "NCr nu/nu mouse brain; either concentration (4 mM, 10 mM), 10 μL into brain", "result": "Neither putrescine nor spermidine demonstrated acute toxicity"}, {"measurement": "Level of protection by HA of distant cells (rank)", "setting": "U87 cells [2]; 3 wt % HA gel", "result": "highest"}, {"measurement": "Protection of cells in HA gel distant from injection", "setting": "U87 cells [2]; both 4 mM and 10 mM", "result": "protected"}]}
{"compound": "Bevacizumab: monoclonal antibody against vascular endothelial growth factor (VEGF)", "values": [{"measurement": "Increase in median progression-free survival", "setting": "recurrent GBM", "result": 0.23, "unit": "months"}, {"measurement": "Increase in overall survival", "setting": "recurrent GBM", "result": 1.4, "unit": "months"}]}
{"compound": "NCCCCCN", "note": "[cadaverine]", "values": [{"measurement": "Concentrations showing cytotoxic effects in hyaluronic acid-rich matrix", "setting": "U87 cell line spheroid; human", "result": "> 4000", "unit": "µM"}, {"measurement": "Animals died after 30 min of injection", "setting": "NCr nu/nu mouse brain; 10 mM, 10 μL into brain", "result": "3 out of 6"}, {"measurement": "Further animals died within 24 hours", "setting": "NCr nu/nu mouse brain; 10 mM, 10 μL into brain", "result": 2, "unit": "animals"}, {"measurement": "Survival", "setting": "NCr nu/nu mouse brain; 10 mM, 10 μL into brain", "result": "Only one animal survived"}, {"measurement": "Weight loss of surviving animal", "setting": "NCr nu/nu mouse brain; 10 mM, day 3, then fully recovered", "result": 18, "unit": "%"}, {"measurement": "EC50", "setting": "U87 cells [1]", "result": 6, "unit": "mM"}, {"measurement": "Protection of cells in HA gel distant from injection", "setting": "U87 cells [2]; 10 mM", "result": "not protected"}, {"measurement": "Level of protection by HA of distant cells (rank)", "setting": "U87 cells [2]; 3 wt % HA gel", "result": "lowest"}]}
